# In ChEMBL document CHEMBL1201862, “PubChem BioAssay data set” (2004):
#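 Tested at 5 concentrations; 48 h exposure; 96-well plates; endpoints linearly interpolated, else capped at highest concentration. Here, GI50 denotes the concentration required for 50% inhibition of growth.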 Activity calls are given as the source filed them. No stated cut-off is given here; in the data, active = GI50 up to about 1.1 µM and inactive = higher. Where a SMILES comes first, the peptide text is derived from it. [ ]: non-standard residue; d: D form. The star is where a group is joined. Phe(4-NO2) = N[CH](Cc1ccc([N+](=O)[O-])cc1)C(=O)O; Boc = CC(C)(C)OC(=O)*; OtBu = CC(C)(C)O*
# Experiments:
# Test in all cases: growth of human tumour cells (NCI), 48 h
# HCT-15 = system: HCT-15
# HL-60 = system: HL-60
# HOP-62 = system: HOP-62
# KM12 = system: KM12
# LOX IMVI = system: LOX IMVI
# MOLT-4 = system: MOLT-4
# NCI-H460 = system: NCI-H460
# NCI-H522 = system: NCI-H522
# NCI/ADR-RES = system: NCI/ADR-RES
# OVCAR-3 = system: OVCAR-3
# RPMI-8226 = system: RPMI-8226
# SF-268 = system: SF-268
# SF-295 = system: SF-295
# SN12C = system: SN12C
# SNB-19 = system: SNB-19
# TK-10 = system: TK-10
# UACC-62 = system: UACC-62
# A498 = system: A498
# K562 = system: K562
SMILES,GI50 (HCT-15) [µM],GI50 (HL-60),GI50 (HOP-62),GI50 (KM12),GI50 (LOX IMVI),GI50 (MOLT-4),GI50 (NCI-H460),GI50 (NCI-H522),GI50 (NCI/ADR-RES),GI50 (OVCAR-3),GI50 (RPMI-8226),GI50 (SF-268),GI50 (SF-295),GI50 (SN12C),GI50 (SNB-19),GI50 (TK-10),GI50 (UACC-62),GI50 (A498),GI50 (K562)
O=c1c2cc([N+](=O)[O-])cnc2sn1-c1ccc([N+](=O)[O-])cc1,28.5,26 µM (inactive),52 µM (inactive),26.4 µM (inactive),18.5 µM (inactive),32.1 µM (inactive),45.1 µM (inactive),7.28 µM (inactive),28.9 µM (inactive),34.6 µM (inactive),23.9 µM (inactive),27.1 µM (inactive),38.2 µM (inactive),47.2 µM (inactive),30.1 µM (inactive),> 100 µM (inactive),66.4 µM (inactive),,
COC(=O)c1ccccc1C1CN=NC12Cc1cc3c(cc1C2=O)CCC3 (centres undefined),> 100,21.4 µM (inactive),> 100 µM (inactive),32.1 µM (inactive),26.9 µM (inactive),35.5 µM (inactive),39.9 µM (inactive),32.9 µM (inactive),37.8 µM (inactive),82.4 µM (inactive),,62.4 µM (inactive),54.2 µM (inactive),92.9 µM (inactive),57.5 µM (inactive),> 100 µM (inactive),69.8 µM (inactive),> 100 µM (inactive),30.3 µM (inactive)
O=C1Nc2ccccc2/C1=C1/Nc2ccccc2/C1=N\OCCOC1OCC(O)C(O)C1O (centres undefined),> 100,> 100 µM (inactive),6.38 µM (inactive),0.453 µM (active),8.59 µM (inactive),85.7 µM (inactive),> 100 µM (inactive),> 100 µM (inactive),> 100 µM (inactive),> 100 µM (inactive),> 100 µM (inactive),> 100 µM (inactive),> 100 µM (inactive),> 100 µM (inactive),> 100 µM (inactive),81.3 µM (inactive),95.1 µM (inactive),,> 100 µM (inactive)
CC(=O)/C(=C/n1ccc(=O)[nH]c1=S)C(=O)Nc1ccccc1C,> 100,82.6 µM (inactive),> 100 µM (inactive),> 100 µM (inactive),> 100 µM (inactive),,> 100 µM (inactive),,> 100 µM (inactive),> 100 µM (inactive),,> 100 µM (inactive),> 100 µM (inactive),> 100 µM (inactive),> 100 µM (inactive),> 100 µM (inactive),> 100 µM (inactive),> 100 µM (inactive),
C1CSCCCSCCSCCCSC1,> 100,,> 100 µM (inactive),,> 100 µM (inactive),> 100 µM (inactive),> 100 µM (inactive),67.9 µM (inactive),,,> 100 µM (inactive),> 100 µM (inactive),> 100 µM (inactive),> 100 µM (inactive),> 100 µM (inactive),> 100 µM (inactive),> 100 µM (inactive),> 100 µM (inactive),> 100 µM (inactive)
CN(C)c1ccc(C2C(Cl)C(=O)N2NC(=O)c2c(Cl)c(Cl)c(Cl)c(Cl)c2-c2nc3ccccc3[nH]2)cc1 (centres undefined),12.9,3.3 µM (inactive),,17.9 µM (inactive),7.4 µM (inactive),2.68 µM (inactive),,2.79 µM (inactive),21.6 µM (inactive),19.4 µM (inactive),,11.5 µM (inactive),42.6 µM (inactive),11.1 µM (inactive),30.3 µM (inactive),,12.7 µM (inactive),22.3 µM (inactive),4.44 µM (inactive)
CN(/N=C/c1cccs1)c1ccc([N+](=O)[O-])cc1[N+](=O)[O-],> 100,> 100 µM (inactive),> 100 µM (inactive),> 100 µM (inactive),,> 100 µM (inactive),> 100 µM (inactive),> 100 µM (inactive),> 100 µM (inactive),> 100 µM (inactive),> 100 µM (inactive),> 100 µM (inactive),> 100 µM (inactive),> 100 µM (inactive),> 100 µM (inactive),> 100 µM (inactive),> 100 µM (inactive),,> 100 µM (inactive)
COC(C)(C)[C@@H]1CCCN1C1=C(C)C(=O)OC1,> 100,> 100 µM (inactive),> 100 µM (inactive),,> 100 µM (inactive),> 100 µM (inactive),> 100 µM (inactive),,> 100 µM (inactive),,> 100 µM (inactive),> 100 µM (inactive),> 100 µM (inactive),> 100 µM (inactive),> 100 µM (inactive),,> 100 µM (inactive),,> 100 µM (inactive)
O=Cc1ccc(OC[C@H]2COC(=O)N2)cc1,> 100,> 100 µM (inactive),> 100 µM (inactive),37.8 µM (inactive),> 100 µM (inactive),> 100 µM (inactive),> 100 µM (inactive),52.4 µM (inactive),> 100 µM (inactive),> 100 µM (inactive),,> 100 µM (inactive),> 100 µM (inactive),> 100 µM (inactive),> 100 µM (inactive),> 100 µM (inactive),> 100 µM (inactive),,> 100 µM (inactive)
O=c1c2ccccc2nc(N/N=C/c2ccc([N+](=O)[O-])cc2)n1-c1ccccc1,> 100,> 100 µM (inactive),13.3 µM (inactive),36.3 µM (inactive),3.08 µM (inactive),77.3 µM (inactive),> 100 µM (inactive),31.4 µM (inactive),13.4 µM (inactive),31.3 µM (inactive),> 100 µM (inactive),12.1 µM (inactive),4.35 µM (inactive),91 µM (inactive),20.7 µM (inactive),18 µM (inactive),27 µM (inactive),,52.1 µM (inactive)
N#Cc1cnn2cc[nH]c12,> 100,> 100 µM (inactive),> 100 µM (inactive),> 100 µM (inactive),,> 100 µM (inactive),> 100 µM (inactive),> 100 µM (inactive),> 100 µM (inactive),> 100 µM (inactive),,> 100 µM (inactive),> 100 µM (inactive),> 100 µM (inactive),> 100 µM (inactive),> 100 µM (inactive),> 100 µM (inactive),> 100 µM (inactive),> 100 µM (inactive)
CC(=O)NC(CCC(=O)OC(C)(C)C)C(=O)NC(CCC(=O)OC(C)(C)C)C(=O)NC(Cc1ccc([N+](=O)[O-])cc1)C(=O)NC(CCCCNC(=O)OC(C)(C)C)C(=O)NC(CCCCNC(=O)OC(C)(C)C)C(=O)NCC(=O)O (centres undefined) (Ac-E(OtBu)E(OtBu)[Phe(4-NO2)]K(Boc)K(Boc)G-OH; configuration not given here),> 100,> 100 µM (inactive),> 100 µM (inactive),> 100 µM (inactive),> 100 µM (inactive),> 100 µM (inactive),> 100 µM (inactive),> 100 µM (inactive),> 100 µM (inactive),> 100 µM (inactive),> 100 µM (inactive),> 100 µM (inactive),> 100 µM (inactive),> 100 µM (inactive),> 100 µM (inactive),> 100 µM (inactive),> 100 µM (inactive),,> 100 µM (inactive)
